We go through 7 compounds from patent publication US20200331925A1, “HETEROCYCLIC COMPOUNDS FOR THE TREATMENT OF ABNORMAL CELLULAR PROLIFERATION” (G1 Therapeutics, Inc., priority 2018, published 2020).

The target of experiment [1] is CDK4/Cyclin D1 (Homo sapiens, UniProt P11802). The experiment can be described thus: CDK4/Cyclin D1 kinase assay (Nanosyn, Caliper microfluidic). To be noted: 12-point dose-response, ATP at Km (200 μM), 3 hr; Table 6. The format is biochemical. The method, then:
(§1) Selected compounds disclosed herein were tested in kinase assays by Nanosyn (Santa Clara, Calif.) to determine their inhibitory effect on selected CDKs. The assays were performed using microfluidic kinase detection technology (Caliper Assay Platform). The compounds were tested in 12-point dose-response format in singlicate at Kmfor ATP. Phosphoacceptor substrate peptide concentration used was 1 μM for all assays and Staurosporine was used as the reference compound for all assays. Specifics of each assay are as described below: CDK4/Cyclin D1: Enzyme concentration: 1 nM; ATP concentration: 200 μM; Incubation time: 3 hr.

Experiment [2] addresses CDK9/Cyclin T (Homo sapiens, UniProt P50750). Kind of experiment: CDK9/Cyclin T kinase assay (Nanosyn, Caliper microfluidic). The format is biochemical. Conditions: 12-point dose-response, ATP at Km (10 μM), 17 hr; Table 6. The method, then: as §1, with “below: […]:” for “below: CDK4/Cyclin D1:”, “concentration: 5” for “concentration: 1”, “concentration: 10” for “concentration: 200”, “time: 17” for “time: 3”

Chain of CDK4/Cyclin D1 (P11802 whole entry): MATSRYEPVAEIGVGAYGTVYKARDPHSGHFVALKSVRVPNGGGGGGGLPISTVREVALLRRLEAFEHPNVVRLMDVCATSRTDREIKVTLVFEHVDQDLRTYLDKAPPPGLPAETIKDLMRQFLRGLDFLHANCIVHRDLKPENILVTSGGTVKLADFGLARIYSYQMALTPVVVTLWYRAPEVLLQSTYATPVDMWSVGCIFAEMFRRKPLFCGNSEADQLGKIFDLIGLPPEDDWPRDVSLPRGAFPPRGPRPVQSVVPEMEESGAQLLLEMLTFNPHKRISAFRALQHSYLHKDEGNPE
Chain of CDK4/Cyclin D1 (P24385 whole entry partner): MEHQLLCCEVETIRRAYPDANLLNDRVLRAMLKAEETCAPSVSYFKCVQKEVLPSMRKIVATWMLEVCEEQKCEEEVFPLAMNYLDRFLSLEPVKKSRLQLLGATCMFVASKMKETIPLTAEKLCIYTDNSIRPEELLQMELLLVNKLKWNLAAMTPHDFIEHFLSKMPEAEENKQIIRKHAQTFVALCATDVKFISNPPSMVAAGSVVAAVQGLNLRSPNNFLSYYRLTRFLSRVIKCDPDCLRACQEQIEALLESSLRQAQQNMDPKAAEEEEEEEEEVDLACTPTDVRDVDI
Chain of CDK9/Cyclin T (P50750 whole entry): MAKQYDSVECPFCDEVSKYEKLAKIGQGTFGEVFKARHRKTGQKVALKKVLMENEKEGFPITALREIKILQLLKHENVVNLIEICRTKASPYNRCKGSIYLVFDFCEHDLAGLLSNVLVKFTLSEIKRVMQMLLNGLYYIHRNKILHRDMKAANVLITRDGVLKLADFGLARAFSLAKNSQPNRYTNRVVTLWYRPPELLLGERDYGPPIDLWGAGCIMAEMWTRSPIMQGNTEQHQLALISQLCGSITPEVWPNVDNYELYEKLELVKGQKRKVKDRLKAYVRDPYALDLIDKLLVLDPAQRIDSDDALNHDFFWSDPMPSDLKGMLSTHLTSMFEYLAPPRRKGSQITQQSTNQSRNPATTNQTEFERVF
Chain of CDK9/Cyclin T (O60563 whole entry partner): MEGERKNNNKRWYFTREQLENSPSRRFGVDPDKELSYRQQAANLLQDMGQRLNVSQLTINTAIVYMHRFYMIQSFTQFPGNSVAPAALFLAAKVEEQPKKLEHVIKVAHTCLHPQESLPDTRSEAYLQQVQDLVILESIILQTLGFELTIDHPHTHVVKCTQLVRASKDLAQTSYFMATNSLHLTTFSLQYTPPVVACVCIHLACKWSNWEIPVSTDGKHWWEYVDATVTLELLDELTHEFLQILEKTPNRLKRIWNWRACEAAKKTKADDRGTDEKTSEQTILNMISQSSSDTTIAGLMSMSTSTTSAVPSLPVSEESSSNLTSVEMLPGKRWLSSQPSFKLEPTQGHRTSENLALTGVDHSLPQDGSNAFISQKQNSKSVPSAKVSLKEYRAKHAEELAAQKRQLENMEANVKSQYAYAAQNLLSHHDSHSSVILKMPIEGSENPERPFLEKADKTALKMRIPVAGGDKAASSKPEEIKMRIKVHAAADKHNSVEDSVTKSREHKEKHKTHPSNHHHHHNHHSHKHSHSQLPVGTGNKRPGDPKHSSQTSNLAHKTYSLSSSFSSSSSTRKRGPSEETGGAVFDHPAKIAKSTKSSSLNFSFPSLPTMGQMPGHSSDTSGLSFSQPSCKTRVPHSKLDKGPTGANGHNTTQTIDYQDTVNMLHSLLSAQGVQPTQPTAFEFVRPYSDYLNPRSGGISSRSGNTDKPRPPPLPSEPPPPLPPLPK

Usually IC50 stands for the concentration at which inhibition is half-maximal. Compound `O=C1NCC2(CCCCC2)n2c1cc1cnc(N[C@H]3CC[C@H](N4CCN(C(=O)C5CC5)CC4)CC3)nc12` [Compound 62, 2′-(((1r,4r)-4-(4-(cyclopropanecarbonyl)piperazin-1-yl)cyclohexyl)amino)-7′,8′-dihydro-6′H-spiro[cyclohexane-1,9′-pyrazino[1′,2′:1,5]pyrrolo[2,3-d]pyrimidin]-6′-one] registered an IC50 in experiment [1] of 20 nM. As for `CC(C)(C)N1CCN([C@H]2CC[C@H](Nc3ncc4cc5n(c4n3)C3(CCCCC3)CNC5=O)CC2)CC1` [Compound 57, 2′-(((1r,4r)-4-(4-(tert-butyl)piperazin-1-yl)cyclohexyl)amino)-7′,8′-dihydro-6′H-spiro[cyclohexane-1,9′-pyrazino[1′,2′:1,5]pyrrolo[2,3-d]pyrimidin]-6′-one], the IC50 in experiment [2] came to 3 nM; in experiment [1] it was 5 nM.

On to `O=C1NCC2(CCCCC2)n2c1cc1cnc(N[C@H]3CC[C@H](N4CCN(C5CCCC5)CC4)CC3)nc12` [Compound 59, 2′-(((1r,4r)-4-(4-cyclopentylpiperazin-1-yl)cyclohexyl)amino)-7′,8′-dihydro-6′H-spiro[cyclohexane-1,9′-pyrazino[1′,2′:1,5]pyrrolo[2,3-d]pyrimidin]-6′-one], for which the IC50 in experiment [2] was found to be 2 nM; in experiment [1], 4 nM. As for `O=C1NCC2(CCCCC2)n2c1cc1cnc(N[C@H]3CC[C@H](N4CCN(CC5CCCCC5)CC4)CC3)nc12` [Compound 61, 2′-(((1r,4r)-4-(4-(cyclohexylmethyl)piperazin-1-yl)cyclohexyl)amino)-7′,8′-dihydro-6′H-spiro[cyclohexane-1,9′-pyrazino[1′,2′:1,5]pyrrolo[2,3-d]pyrimidin]-6′-one], it took 13 nM to reach half-maximal inhibition in experiment [1] (IC50).

In the case of `O=C1NCC2(CCCCC2)n2c1cc1cnc(N[C@H]3CC[C@H](N4CCN(c5ccc(F)cc5)CC4)CC3)nc12` [Compound 60, 2′-(((1r,4r)-4-(4-(4-fluorophenyl)piperazin-1-yl)cyclohexyl)amino)-7′,8′-dihydro-6′H-spiro[cyclohexane-1,9′-pyrazino[1′,2′:1,5]pyrrolo[2,3-d]pyrimidin]-6′-one], the figures for the IC50 in experiment [2] and in experiment [1] were 3 nM and 13 nM, respectively. In the same order, the values of `O=C1NCC2(CCCCC2)n2c1cc1cnc(N[C@H]3CC[C@H](N4CCC(C(F)(F)F)CC4)CC3)nc12` [Compound 56, 2′-(((1r,4r)-4-(4-(trifluoromethyl)piperidin-1-yl)cyclohexyl)amino)-7′,8′-dihydro-6′H-spiro[cyclohexane-1,9′-pyrazino[1′,2′:1,5]pyrrolo[2,3-d]pyrimidin]-6′-one] are 4 nM and 27 nM. `O=C1NCC2(CCCCC2)n2c1cc1cnc(N[C@H]3CC[C@H](N4CCN(C5CC5)CC4)CC3)nc12` [Compound 58, 2′-(((1r,4r)-4-(4-cyclopropylpiperazin-1-yl)cyclohexyl)amino)-7′,8′-dihydro-6′H-spiro[cyclohexane-1,9′-pyrazino[1′,2′:1,5]pyrrolo[2,3-d]pyrimidin]-6′-one] came in with an IC50 in experiment [1] of 33 nM.
